# Reference: US20230107642A1 (Erasca, Inc., priority 2020, published 2023)
# Target: T1, K-Ras G12C (Homo sapiens, UniProt P01116, G12C)
# T1 construct: This protein contained 188 amino acids in total, including an N-terminal 6-Histidine tag; made in house; host or cells: E. coli BL21
# Assay: CAF assay (% CAF; method in Example 7, not in this part)
# Assay type: binding
# Settings: 10 uM compound, 1 h incubation
row,"% CAF @ 10 uM, 1h",SMILES
1,21%,"C=CC(=O)N1CCN(c2nc(=O)n3c4c(c(-c5c(F)cc(F)cc5F)c(C(F)(F)F)cc24)SCCC3)[C@@H](C)C1 [Example 455, (S)-8-(4-acryloyl-2-methylpiperazin-1-yl)-10-(trifluoromethyl)-11-(2,4,6-trifluorophenyl)-3,4-dihydro-2H,6H-[1,4]thiazepino[2,3,4-ij]quinazolin-6-one]"
2,96%,"C=CC(=O)N1CCN(c2nc(=O)n3c4c(c(-c5ccc(F)cc5F)c(C(F)(F)F)cc24)SC[C@H](OC)C3)[C@@H](C)C1 [Example 465, (3R)-8-((S)-4-acryloyl-2-methylpiperazin-1-yl)-11-(2,4-difluorophenyl)-3-methoxy-10-(trifluoromethyl)-3,4-dihydro-2H,6H-[1,4]thiazepino[2,3,4-ij]quinazolin-6-one]"
3,90%,"C=CC(=O)N1CCN(c2nc(=O)n3c4c(c(-c5ccc(F)cc5F)c(C(F)(F)F)cc24)SC[C@@H](O)C3)[C@@H](C)C1 [Example 431, (3S)-8-((S)-4-acryloyl-2-methylpiperazin-1-yl)-11-(2,4-difluorophenyl)-3-hydroxy-10-(trifluoromethyl)-3,4-dihydro-2H,6H-[1,4]thiazepino[2,3,4-ij]quinazolin-6-one]"
4,11.3%,"C=CC(=O)N1C[C@H](C)N(c2nc(=O)n3c4c(c(-c5cc(Cl)c(F)cc5F)c(C(F)(F)F)cc24)SC[C@@H]3COCCOC)C[C@H]1C (atropisomer, axis not shown) [Example 554, (3S,10S)-7-((2S,5R)-4-acryloyl-2,5-dimethylpiperazin-1-yl)-10-(5-chloro-2,4-difluorophenyl)-3-((2-methoxyethoxy)methyl)-9-(trifluoromethyl)-2H-[1,4]thiazino[2,3,4-ij]quinazolin-5(3H)-one]"
5,93.6%,"C=CC(=O)N1CCN(c2nc(=O)n3c4c(c(-c5cc(Cl)c(F)cc5F)c(C(F)(F)F)cc24)SC[C@@H]3COC)CC1 [Example 572, (3S)-7-(4-acryloylpiperazin-1-yl)-10-(5-chloro-2,4-difluorophenyl)-3-(methoxymethyl)-9-(trifluoromethyl)-2H-[1,4]thiazino[2,3,4-ij]quinazolin-5(3H)-one]"
6,73.1%,"C=CC(=O)N1C[C@H](C)N(c2nc(=O)n3c4c(c(-c5cc(Cl)c(F)cc5F)c(C(F)(F)F)cc24)SC[C@@H]3CN2CCN(CC(F)F)CC2)C[C@H]1C (atropisomer, axis not shown) [Example 556, (3S,10R)-7-((2S,5R)-4-acryloyl-2,5-dimethylpiperazin-1-yl)-10-(5-chloro-2,4-difluorophenyl)-3-((4-(2,2-difluoroethyl)piperazin-1-yl)methyl)-9-(trifluoromethyl)-2H-[1,4]thiazino[2,3,4-ij]quinazolin-5(3H)-one]"
7,83.8%,"C=CC(=O)N1[C@H](C)CN(c2nc(=O)n3c4c(c(-c5cc(Cl)c(F)cc5F)c(C(F)(F)F)cc24)SC[C@@H]3COC)C[C@@H]1C [Example 559, (3S)-7-((3S,5R)-4-acryloyl-3,5-dimethylpiperazin-1-yl)-10-(5-chloro-2,4-difluorophenyl)-3-(methoxymethyl)-9-(trifluoromethyl)-2H-[1,4]thiazino[2,3,4-ij]quinazolin-5(3H)-one]"
8,60%,"C=CC(=O)N1C[C@H](C)N(c2nc(=O)n3c4c(c(-c5cc(F)c(F)cc5F)c(C(F)(F)F)cc24)SC[C@@H]3COC)C[C@H]1C [Example 491, (3S)-7-((2S,5R)-4-acryloyl-2,5-dimethylpiperazin-1-yl)-3-(methoxymethyl)-9-(trifluoromethyl)-10-(2,4,5-trifluorophenyl)-2H-[1,4]thiazino[2,3,4-ij]quinazolin-5(3H)-one]"
9,93.9%,"C=CC(=O)N1[C@H](C)CN(c2nc(=O)n3c4c(c(-c5cc(Cl)c(F)cc5F)c(C(F)(F)F)cc24)SC[C@@H]3COC)C[C@@H]1C (atropisomer, axis not shown) [Example 563, (3S,10R)-7-((3S,5R)-4-acryloyl-3,5-dimethylpiperazin-1-yl)-10-(5-chloro-2,4-difluorophenyl)-3-(methoxymethyl)-9-(trifluoromethyl)-2,3-dihydro-5H-[1,4]thiazino[2,3,4-ij]quinazolin-5-one]"
10,80.8%,"C=CC(=O)N1[C@H](C)CN(c2nc(=O)n3c4c(c(-c5cc(Cl)c(F)cc5F)c(C(F)(F)F)cc24)SC[C@@H]3COC)C[C@@H]1C (atropisomer, axis not shown) [Example 564, (3S,10S)-7-((3S,5R)-4-acryloyl-3,5-dimethylpiperazin-1-yl)-10-(5-chloro-2,4-difluorophenyl)-3-(methoxymethyl)-9-(trifluoromethyl)-2,3-dihydro-5H-[1,4]thiazino[2,3,4-ij]quinazolin-5-one]"
11,72.3%,"C=CC(=O)N1CCN(c2nc(=O)n3c4c(c(-c5ccc(F)cc5F)c(Cl)cc24)SC[C@@H]3CN2CCC3(CC2)COC3)[C@@H](C)C1 [Example 472, (3S)-3-(2-oxa-7-azaspiro[3.5]nonan-7-ylmethyl)-7-((S)-4-acryloyl-2-methylpiperazin-1-yl)-9-chloro-10-(2,4-difluorophenyl)-2H-[1,4]thiazino[2,3,4-ij]quinazolin-5(3H)-one]"
12,92.8%,"C=CC(=O)N1CCN(c2nc(=O)n3c4c(c(-c5ccc(F)cc5F)c(Cl)cc24)SC[C@@H]3CC2CCOCC2)[C@@H](C)C1 [Example 438, (3S)-7-((S)-4-acryloyl-2-methylpiperazin-1-yl)-9-chloro-10-(2,4-difluorophenyl)-3-((tetrahydro-2H-pyran-4-yl)methyl)-2H-[1,4]thiazino[2,3,4-ij]quinazolin-5(3H)-one]"
13,45%,"C=CC(=O)N1C[C@H](C)N(c2nc(=O)n3c4c(c(-c5cc(F)c(F)cc5F)c(Cl)cc24)SC[C@@H]3CN2CCC3(CC2)COC3)C[C@H]1C (atropisomer, axis not shown) [Example 485, (3S,10R)-3-((2-oxa-7-azaspiro[3.5]nonan-7-yl)methyl)-7-((2S,5R)-4-acryloyl-2,5-dimethylpiperazin-1-yl)-9-chloro-10-(2,4,5-trifluorophenyl)-2,3-dihydro-5H-[1,4]thiazino[2,3,4-ij]quinazolin-5-one]"

# Same assay, conditions: 10 uM, 1 h; Table 3
row,"% CAF @ 10 uM, 1h",SMILES
1,48.9%,"C=CC(=O)N1CCN(c2nc(=O)n3c4c(c(-c5cc(Cl)ccc5Cl)c(Cl)cc24)SCC3)[C@@H](C)C1 [Example 171, 7-((S)-4-acryloyl-2-methylpiperazin-1-yl)-9-chloro-10-(2,5-dichlorophenyl)-2,3-dihydro-5H-[1,4]thiazino[2,3,4-ij]quinazolin-5-one]"
2,3.6%,"CN(C)C/C=C/C(=O)N1CCN(c2nc(=O)n3c4c(c(-c5ccc(F)cc5F)c(Cl)cc24)SCC3)C[C@H]1C#N [Example 121, (2S)-4-(9-chloro-10-(2,4-difluorophenyl)-5-oxo-2,3-dihydro-5H-[1,4]thiazino[2,3,4-ij]quinazolin-7-yl)-1-((E)-4-(dimethylamino)but-2-enoyl)piperazine-2-carbonitrile]"
3,95.4%,"C=CC(=O)N1CCN(c2nc(=O)n3c4c(c(-c5ccc(F)cc5F)c(Cl)cc24)SCCC3)[C@@H](C)C1 [Example 102, 8-((S)-4-acryloyl-2-methylpiperazin-1-yl)-10-chloro-11-(2,4-difluorophenyl)-3,4-dihydro-2H,6H-[1,4]thiazepino[2,3,4-ij]quinazolin-6-one]"
4,83.7%,"C=CC(=O)N1CCN(c2nc(=O)n3c4c(c(-c5ccc(F)cc5F)c(Cl)cc24)SCC3)C[C@H]1CS(C)(=O)=O [Example 187, 7-((S)-4-acryloyl-3-((methylsulfonyl)methyl)piperazin-1-yl)-9-chloro-10-(2,4-difluorophenyl)-2,3-dihydro-5H-[1,4]thiazino[2,3,4-ij]quinazolin-5-one]"
5,94.5%,"C=C(F)C(=O)N1CCN(c2nc(=O)n3c4c(c(-c5ccc(F)cc5F)c(Cl)cc24)SCC3)C[C@H]1C#N [Example 125, (2S)-4-(9-chloro-10-(2,4-difluorophenyl)-5-oxo-2,3-dihydro-5H-[1,4]thiazino[2,3,4-ij]quinazolin-7-yl)-1-(2-fluoroacryloyl) piperazine-2-carbonitrile]"
6,91.9%,"C=CC(=O)N1CCN(c2nc(=O)n3c4c(c(-c5ccc(F)cc5F)c(C#N)cc24)SCC3)[C@@H](C)C1 [Example 132, 7-((S)-4-acryloyl-2-methylpiperazin-1-yl)-10-(2,4-difluorophenyl)-5-oxo-2,3-dihydro-5H-[1,4]thiazino[2,3,4-ij]quinazoline-9-carbonitrile]"

row,SMILES,"% CAF @ 10 uM, 1h"
1,"C=CC(=O)N1CC2CC(C1)N2c1nc(=O)n2c3c(c(-c4ccc(F)cc4F)c(Cl)cc13)SCC2 [Example 135, 7-(3-acryloyl-3,6-diazabicyclo[3.1.1]heptan-6-yl)-9-chloro-10-(2,4-difluorophenyl)-2,3-dihydro-5H-[1,4]thiazino[2,3,4-ij]quinazolin-5-one]",0%
2,"C=CC(=O)N1C2COCC1CN(c1nc(=O)n3c4c(c(-c5ccc(F)cc5F)c(Cl)cc14)SCC3)C2 [Example 182, 7-(9-acryloyl-3-oxa-7,9-diazabicyclo[3.3.1]nonan-7-yl)-9-chloro-10-(2,4-difluorophenyl)-2,3-dihydro-5H-[1,4]thiazino[2,3,4-ij]quinazolin-5-one]",94.4%
3,"C=CC(=O)N1C2CN(c3nc(=O)n4c5c(c(-c6ccc(F)cc6F)c(Cl)cc35)SCC4)CC1CS(=O)(=O)C2 [Example 84, 7-(9-acryloyl-3,3-dioxido-3-thia-7,9-diazabicyclo[3.3.1]nonan-7-yl)-9-chloro-10-(2,4-difluorophenyl)-2,3-dihydro-5H-[1,4]thiazino[2,3,4-ij]quinazolin-5-one]",43.8%

# Same assay, conditions: 10 μM, 1 h; Table 4
row,"% CAF @ 10 μM, 1 h",SMILES
1,97%,"C=CC(=O)N1CCN(c2nc(=O)n3c4c(c(-c5ccc(F)cc5F)c(C(F)(F)F)cc24)SC[C@@H]3CC2CCN(CC)CC2)[C@@H](C)C1 [Example 353, (3S)-7-((S)-4-acryloyl-2-methylpiperazin-1-yl)-10-(2,4-difluorophenyl)-3-((1-ethylpiperidin-4-yl)methyl)-9-(trifluoromethyl)-2H-[1,4]thiazino[2,3,4-ij]quinazolin-5(3H)-one]"
